# Results from patent US20230085307A1, “PYRIDAZINONE COMPOUND AND HERBICIDE” (NISSAN CHEMICAL CORPORATION, priority 2019, published 2023).
# Legend:
# [1] = system: velvetleaf; assay: Test Example 5: herbicidal effect by foliage application, plastic box (Table 20, symbol M); format: in vivo, velvetleaf (Abutilon theophrasti); conditions: foliage application, 320 g/ha, evaluated three weeks after application
# Outline: (§1)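 Post-emergence foliar test in sterilized diluvial soil. Compound applied as water-diluted emulsion at a predetermined rate to 14-day-old plants; evaluation at three weeks.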
# [2] = system: green foxtail; assay: Test Example 5: herbicidal effect by foliage application, plastic box (Table 20, symbol G); format: in vivo, green foxtail (Setaria viridis); conditions: foliage application, 320 g/ha, evaluated three weeks after application
# Outline: as §1
# [3] = system: green foxtail; assay: Test Example 4: herbicidal effect by soil treatment (Table 19, symbol G); format: in vivo, green foxtail (Setaria viridis); conditions: amount of applied herbicide 320 g/ha
# Outline: (§2)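 Scoring uses the grading scale of an earlier test, three weeks post-application. Treatment consists of spraying a diluted emulsion formulation across the surface of sterilized diluvial soil in which seeds are buried near 1.5 cm deep; boxes are kept in a greenhouse between 25° C. and 30° C.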
# [4] = system: wild oat; assay: Test Example 4: herbicidal effect by soil treatment (Table 19, symbol I); format: in vivo, wild oat (Avena fatua); conditions: amount of applied herbicide 320 g/ha
# Outline: as §2
# [5] = system: chickweed; assay: Test Example 4: herbicidal effect by soil treatment (Table 19, symbol P); format: in vivo, common chickweed (Stellaria media); conditions: amount of applied herbicide 320 g/ha
# Outline: as §2
# [6] = system: lambsquarters; assay: Test Example 4: herbicidal effect by soil treatment (Table 19, symbol O); format: in vivo, lambsquarters (Chenopodium album); conditions: amount of applied herbicide 320 g/ha
# Outline: as §2
# [7] = system: rice flat sedge; assay: Test Example 3: herbicidal effect by foliage application, Wagner pot (Table 18, symbol E); format: in vivo, rice flat sedge (Cyperus iria); conditions: amount of applied herbicide 320 g/ha
# Outline: (§3)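 Plants were sown in alluvial soil held under 0.1–0.5 cm standing water and grown 14 days in a greenhouse at 25–30 °C. An emulsifiable formulation, water-diluted to the set dose, was then sprayed onto the foliage, and effects were scored three weeks later using previously defined criteria.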
# [8] = system: blackgrass; assay: Test Example 4: herbicidal effect by soil treatment (Table 19, symbol J); format: in vivo, blackgrass (Alopecurus myosuroides); conditions: amount of applied herbicide 320 g/ha
# Outline: as §2
# [9] = system: Italian ryegrass; assay: Test Example 4: herbicidal effect by soil treatment (Table 19, symbol K); format: in vivo, Italian ryegrass (Lolium multiflorum); conditions: amount of applied herbicide 320 g/ha
# Outline: as §2
# [10] = system: late watergrass; assay: Test Example 1: herbicidal activity, application before weed generation under submerged conditions (Table 16, symbol A); format: in vivo, late watergrass (Echinochloa oryzicola); conditions: 320 g/ha applied herbicide
# Outline: (§4)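 Submerged Wagner pots (alluvial soil, 4 cm water) sown with weed seeds and planted with 2.5-leaf rice seedlings; emulsifiable concentrate diluted in water applied to water surface on sowing day. Held in greenhouse at 25-30 °C; injury scored 0-5 by herbicidal rate after three weeks.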
# [11] = system: persian speedwell; assay: Test Example 5: herbicidal effect by foliage application, plastic box (Table 20, symbol R); format: in vivo, Persian speedwell (Veronica persica); conditions: foliage application, 320 g/ha, evaluated three weeks after application
# Outline: as §1
# [12] = system: chickweed; assay: Test Example 5: herbicidal effect by foliage application, plastic box (Table 20, symbol P); format: in vivo, common chickweed (Stellaria media); conditions: foliage application, 320 g/ha, evaluated three weeks after application
# Outline: as §1
# [13] = system: barnyard grass; assay: Test Example 3: herbicidal effect by foliage application, Wagner pot (Table 18, symbol H); format: in vivo, barnyard grass (Echinochloa crus-galli); conditions: amount of applied herbicide 320 g/ha
# Outline: as §3
# [14] = system: blackgrass; assay: Test Example 5: herbicidal effect by foliage application, plastic box (Table 20, symbol J); format: in vivo, blackgrass (Alopecurus myosuroides); conditions: foliage application, 320 g/ha, evaluated three weeks after application
# Outline: as §1
# [15] = system: lambsquarters; assay: Test Example 5: herbicidal effect by foliage application, plastic box (Table 20, symbol O); format: in vivo, lambsquarters (Chenopodium album); conditions: foliage application, 320 g/ha, evaluated three weeks after application
# Outline: as §1
# [16] = system: Chinese sprangletop; assay: Test Example 3: herbicidal effect by foliage application, Wagner pot (Table 18, symbol D); format: in vivo, chinese sprangletop (Leptochloa chinensis); conditions: amount of applied herbicide 320 g/ha
# Outline: as §3
# [17] = system: redroot pigweed; assay: Test Example 5: herbicidal effect by foliage application, plastic box (Table 20, symbol N); format: in vivo, redroot pigweed (Amaranthus retroflexus); conditions: foliage application, 320 g/ha, evaluated three weeks after application
# Outline: as §1
# [18] = system: false cleavers; assay: Test Example 4: herbicidal effect by soil treatment (Table 19, symbol Q); format: in vivo, false cleavers (Galium spurium); conditions: amount of applied herbicide 320 g/ha
# Outline: as §2
# [19] = system: windgrass; assay: Test Example 4: herbicidal effect by soil treatment (Table 19, symbol L); format: in vivo, windgrass (Apera spica-venti); conditions: amount of applied herbicide 320 g/ha
# Outline: as §2
# [20] = system: oval-leafed pondweed; assay: Test Example 1: herbicidal activity, application before weed generation under submerged conditions (Table 16, symbol C); format: in vivo, oval-leafed pondweed (Monochoria vaginalis); conditions: 320 g/ha applied herbicide
# Outline: as §4
# [21] = system: windgrass; assay: Test Example 5: herbicidal effect by foliage application, plastic box (Table 20, symbol L); format: in vivo, windgrass (Apera spica-venti); conditions: foliage application, 320 g/ha, evaluated three weeks after application
# Outline: as §1
# [22] = system: redroot pigweed; assay: Test Example 4: herbicidal effect by soil treatment (Table 19, symbol N); format: in vivo, redroot pigweed (Amaranthus retroflexus); conditions: amount of applied herbicide 320 g/ha
# Outline: as §2
# [23] = system: Italian ryegrass; assay: Test Example 5: herbicidal effect by foliage application, plastic box (Table 20, symbol K); format: in vivo, Italian ryegrass (Lolium multiflorum); conditions: foliage application, 320 g/ha, evaluated three weeks after application
# Outline: as §1
# [24] = system: southern crabgrass; assay: Test Example 5: herbicidal effect by foliage application, plastic box (Table 20, symbol F); format: in vivo, southern crabgrass (Digitaria ciliaris); conditions: foliage application, 320 g/ha, evaluated three weeks after application
# Outline: as §1
# [25] = system: southern crabgrass; assay: Test Example 4: herbicidal effect by soil treatment (Table 19, symbol F); format: in vivo, southern crabgrass (Digitaria ciliaris); conditions: amount of applied herbicide 320 g/ha
# Outline: as §2
# [26] = system: Japanese bulrush; assay: Test Example 1: herbicidal activity, application before weed generation under submerged conditions (Table 16, symbol B); format: in vivo, Japanese bulrush (Schoenoplectus juncoides); conditions: 320 g/ha applied herbicide
# Outline: as §4
# [27] = system: wild oat; assay: Test Example 5: herbicidal effect by foliage application, plastic box (Table 20, symbol I); format: in vivo, wild oat (Avena fatua); conditions: foliage application, 320 g/ha, evaluated three weeks after application
# Outline: as §1
# [28] = system: persian speedwell; assay: Test Example 4: herbicidal effect by soil treatment (Table 19, symbol R); format: in vivo, Persian speedwell (Veronica persica); conditions: amount of applied herbicide 320 g/ha
# Outline: as §2
# [29] = system: barnyard grass; assay: Test Example 5: herbicidal effect by foliage application, plastic box (Table 20, symbol H); format: in vivo, barnyard grass (Echinochloa crus-galli); conditions: foliage application, 320 g/ha, evaluated three weeks after application
# Outline: as §1
# [30] = system: velvetleaf; assay: Test Example 4: herbicidal effect by soil treatment (Table 19, symbol M); format: in vivo, velvetleaf (Abutilon theophrasti); conditions: amount of applied herbicide 320 g/ha
# Outline: as §2
# [31] = system: barnyard grass; assay: Test Example 4: herbicidal effect by soil treatment (Table 19, symbol H); format: in vivo, barnyard grass (Echinochloa crus-galli); conditions: amount of applied herbicide 320 g/ha
# Outline: as §2
smiles,measurement,setting,value
CCCCOc1cccc(-c2sc3ccc(F)cc3c2-c2c(O)c(C)nn(C)c2=O)c1 [2-219],herbicidal effect on M: velvetleaf (criteria 0-5),[1],2 (Herbicidal rate of 20% or more and less than 40%)
same,herbicidal effect on G: green foxtail (criteria 0-5),[2],5 (Herbicidal rate of 90% or more (almost completely withered))
same,"G: green foxtail, herbicidal effect rating",[3],4 (Herbicidal rate of 70% or more and less than 90%)
same,"I: wild oat, herbicidal effect rating",[4],0 (Herbicidal rate of 5% or less (almost no effect))
same,"P: chickweed, herbicidal effect rating",[5],0 (Herbicidal rate of 5% or less (almost no effect))
same,"O: lambsquarters, herbicidal effect rating",[6],1 (Herbicidal rate of 5% or more and less than 20%)
same,herbicidal effect on E: rice flat sedge,[7],3 (Herbicidal rate of 40% or more and less than 70%)
same,"J: blackgrass, herbicidal effect rating",[8],0 (Herbicidal rate of 5% or less (almost no effect))
same,"K: Italian ryegrass, herbicidal effect rating",[9],0 (Herbicidal rate of 5% or less (almost no effect))
same,Herbicidal effect on A: late watergrass (grade 0-5),[10],3 (Herbicidal rate of 40% or more and less than 70%)
same,herbicidal effect on R: persian speedwell (criteria 0-5),[11],5 (Herbicidal rate of 90% or more (almost completely withered))
same,herbicidal effect on P: chickweed (criteria 0-5),[12],5 (Herbicidal rate of 90% or more (almost completely withered))
same,herbicidal effect on H: barnyard grass,[13],5 (Herbicidal rate of 90% or more (almost completely withered))
same,herbicidal effect on J: blackgrass (criteria 0-5),[14],0 (Herbicidal rate of 5% or less (almost no effect))
same,herbicidal effect on O: lambsquarters (criteria 0-5),[15],3 (Herbicidal rate of 40% or more and less than 70%)
same,herbicidal effect on D: Chinese sprangletop,[16],3 (Herbicidal rate of 40% or more and less than 70%)
same,herbicidal effect on N: redroot pigweed (criteria 0-5),[17],5 (Herbicidal rate of 90% or more (almost completely withered))
same,"Q: false cleavers, herbicidal effect rating",[18],0 (Herbicidal rate of 5% or less (almost no effect))
same,"L: windgrass, herbicidal effect rating",[19],0 (Herbicidal rate of 5% or less (almost no effect))
same,Herbicidal effect on C: oval-leafed pondweed (grade 0-5),[20],0 (Herbicidal rate of 5% or less (almost no effect))
same,herbicidal effect on L: windgrass (criteria 0-5),[21],0 (Herbicidal rate of 5% or less (almost no effect))
same,"N: redroot pigweed, herbicidal effect rating",[22],3 (Herbicidal rate of 40% or more and less than 70%)
same,herbicidal effect on K: Italian ryegrass (criteria 0-5),[23],0 (Herbicidal rate of 5% or less (almost no effect))
same,herbicidal effect on F: southern crabgrass (criteria 0-5),[24],4 (Herbicidal rate of 70% or more and less than 90%)
same,"F: southern crabgrass, herbicidal effect rating",[25],4 (Herbicidal rate of 70% or more and less than 90%)
same,Herbicidal effect on B: Japanese bulrush (grade 0-5),[26],0 (Herbicidal rate of 5% or less (almost no effect))
same,herbicidal effect on I: wild oat (criteria 0-5),[27],0 (Herbicidal rate of 5% or less (almost no effect))
same,"R: persian speedwell, herbicidal effect rating",[28],3 (Herbicidal rate of 40% or more and less than 70%)
same,herbicidal effect on H: barnyard grass (criteria 0-5),[29],4 (Herbicidal rate of 70% or more and less than 90%)
same,"M: velvetleaf, herbicidal effect rating",[30],1 (Herbicidal rate of 5% or more and less than 20%)
same,"H: barnyard grass, herbicidal effect rating",[31],5 (Herbicidal rate of 90% or more (almost completely withered))
